Assay results taken from patent US20260285850A1, “SUBSTITUTED OXAZOLIDINONES AND IMIDAZOLINONES AS HERBICIDES” (FMC CORPORATION, priority 2023, published 2026).

Assays:
Assay type in all cases: in vivo
[1] = tested on: green foxtail (Setaria viridis); assay: Test A postemergence application, visual injury rating 0-100; conditions: Postemergence, 10 days, 0 is no effect, 100 is complete control
Method in brief: (§1)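 Preemergence directed soil spray or postemergence spray (2-10 cm, 1-2 leaf); loam/sand mix; compound in non-phytotoxic solvent + surfactant. Greenhouse, 10 d. Visual injury vs untreated, 0 = none, 100 = complete control.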

[2] = tested on: galium (catchweed bedstraw, Galium aparine); assay: as above; conditions: Postemergence, 10 days, 0 is no effect, 100 is complete control
Method in brief: as §1

[3] = tested on: palmer (palmer amaranth, palmer pigweed, Amaranthus palmeri); assay: as above; conditions: Postemergence, 10 days, 0 is no effect, 100 is complete control
Method in brief: as §1

[4] = tested on: blackgrass (Alopecurus myosuroides); assay: as above; conditions: Postemergence, 10 days, 0 is no effect, 100 is complete control
Method in brief: as §1

[5] = tested on: wheat (Triticum aestivum); assay: as above; conditions: Postemergence, 10 days, 0 is no effect, 100 is complete control
Method in brief: as §1

[6] = tested on: ragweed (common ragweed, Ambrosia artemisiifolia); assay: as above; conditions: Postemergence, 10 days, 0 is no effect, 100 is complete control
Method in brief: as §1

[7] = tested on: oat, wild (wild oat, Avena fatua); assay: as above; conditions: Postemergence, 10 days, 0 is no effect, 100 is complete control
Method in brief: as §1

kochia (Bassia scoparia) [8] = assay: as above; conditions: Postemergence, 10 days, 0 is no effect, 100 is complete control
Method in brief: as §1

[9] = tested on: barnyardgrass (Echinochloa crus-galli); assay: as above; conditions: Postemergence, 10 days, 0 is no effect, 100 is complete control
Method in brief: as §1

corn (Zea mays) [10] = assay: as above; conditions: Postemergence, 10 days, 0 is no effect, 100 is complete control
Method in brief: as §1

[11] = tested on: ryegrass, Italian (italian ryegrass, Lolium multiflorum); assay: as above; conditions: Postemergence, 10 days, 0 is no effect, 100 is complete control
Method in brief: as §1

[12] = tested on: horseweed (Erigeron canadensis); assay: as above; conditions: Postemergence, 10 days, 0 is no effect, 100 is complete control
Method in brief: as §1

soybean (Glycine max) [13] = assay: as above; conditions: Postemergence, 10 days, 0 is no effect, 100 is complete control
Method in brief: as §1

[14] = tested on: barnyardgrass (Echinochloa crusgalli); assay: Test B flooded paddy test, visual plant response rating 0-100; conditions: 250 g ai/ha, Flood, applied to paddy water, evaluated after 13 days
Method in brief: (§2)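 Treatment occurs at the 2-leaf stage by adding compound to floodwater standing 3 cm above the soil, a level kept for the whole test. Plants stay in the greenhouse 13 days before visual comparison with controls.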

[15] = tested on: ducksalad (Heteranthera limosa); assay: as above; conditions: 250 g ai/ha, Flood, applied to paddy water, evaluated after 13 days
Method in brief: as §2

rice (Oryza sativa) = assay: as above; conditions: 250 g ai/ha, Flood, applied to paddy water, evaluated after 13 days
Method in brief: as §2

[16] = tested on: sedge, umbrella (small-flower umbrella sedge, Cyperus difformis); assay: as above; conditions: 250 g ai/ha, Flood, applied to paddy water, evaluated after 13 days
Method in brief: as §2

[17] = tested on: green foxtail (Setaria viridis); assay: Test A preemergence soil spray, visual injury rating 0-100; conditions: 10 days, 0 = no effect, 100 = complete control
Method in brief: as §1

[18] = tested on: palmer (palmer amaranth, palmer pigweed, Amaranthus palmeri); assay: as above; conditions: 10 days, 0 = no effect, 100 = complete control
Method in brief: as §1

[19] = tested on: blackgrass (Alopecurus myosuroides); assay: as above; conditions: 10 days, 0 = no effect, 100 = complete control
Method in brief: as §1

[20] = tested on: wheat (Triticum aestivum); assay: as above; conditions: 10 days, 0 = no effect, 100 = complete control
Method in brief: as §1

[21] = tested on: oat, wild (wild oat, Avena fatua); assay: as above; conditions: 10 days, 0 = no effect, 100 = complete control
Method in brief: as §1

kochia (Bassia scoparia) [22] = assay: as above; conditions: 10 days, 0 = no effect, 100 = complete control
Method in brief: as §1

[23] = tested on: barnyardgrass (Echinochloa crus-galli); assay: as above; conditions: 10 days, 0 = no effect, 100 = complete control
Method in brief: as §1

corn (Zea mays) [24] = assay: as above; conditions: 10 days, 0 = no effect, 100 = complete control
Method in brief: as §1

[25] = tested on: ryegrass, Italian (italian ryegrass, Lolium multiflorum); assay: as above; conditions: 10 days, 0 = no effect, 100 = complete control
Method in brief: as §1

soybean (Glycine max) [26] = assay: as above; conditions: 10 days, 0 = no effect, 100 = complete control
Method in brief: as §1

COCCOC(=O)C1C=CC(NC(=O)C2(C)CN(c3cc(F)cc(F)c3)C(=O)O2)C1 (centres unmarked) [Compound 36]
80: Foxtail, Green plant response rating (0 to 100 scale) ([1]; 125 g ai/ha) | Galium plant response rating (0 to 100 scale) ([2]; 500 g ai/ha) | Wheat plant response rating (0 to 100 scale) ([5]; 500 g ai/ha) | Ragweed plant response rating (0 to 100 scale) ([6]; 500 g ai/ha) | Ryegrass, Italian plant response rating (0 to 100 scale) ([11]; 500 g ai/ha) | Soybean plant response rating (0 to 100 scale) (soybean (Glycine max) [13]; 500 g ai/ha) | Amaranth, Palmer plant response rating (0 to 100 scale) ([18]; 125 g ai/ha) | Blackgrass plant response rating (0 to 100 scale) ([19]; 125 g ai/ha) | Soybean plant response rating (0 to 100 scale) (soybean (Glycine max) [26]; 500 g ai/ha)
100: Amaranth, Palmer / Pigweed, Palmer plant response rating (0 to 100 scale) ([3]; 500 g ai/ha) | Blackgrass plant response rating (0 to 100 scale) ([4]; 125 g ai/ha) | Blackgrass plant response rating (0 to 100 scale) ([4]; 500 g ai/ha) | Oat, Wild plant response rating (0 to 100 scale) ([7]; 500 g ai/ha) | Barnyardgrass plant response rating (0 to 100 scale) ([9]; 125 g ai/ha) | Barnyardgrass plant response rating (0 to 100 scale) ([9]; 500 g ai/ha) | Corn plant response rating (0 to 100 scale) (corn (Zea mays) [10]; 125 g ai/ha) | Corn plant response rating (0 to 100 scale) (corn (Zea mays) [10]; 500 g ai/ha) | Foxtail, Green plant response rating (0 to 100 scale) ([17]; 125 g ai/ha) | Foxtail, Green plant response rating (0 to 100 scale) ([17]; 500 g ai/ha) | Amaranth, Palmer plant response rating (0 to 100 scale) ([18]; 500 g ai/ha) | Blackgrass plant response rating (0 to 100 scale) ([19]; 500 g ai/ha) | Wheat plant response rating (0 to 100 scale) ([20]; 500 g ai/ha) | Kochia plant response rating (0 to 100 scale) (kochia (Bassia scoparia) [22]; 500 g ai/ha) | Barnyardgrass plant response rating (0 to 100 scale) ([23]; 125 g ai/ha) | Barnyardgrass plant response rating (0 to 100 scale) ([23]; 500 g ai/ha) | Ryegrass, Italian plant response rating (0 to 100 scale) ([25]; 125 g ai/ha) | Ryegrass, Italian plant response rating (0 to 100 scale) ([25]; 500 g ai/ha)
55: Plant response rating, Rice (0 to 100 scale, 0 is no effect and 100 is complete control) (rice (Oryza sativa))
95: Plant response rating, Sedge, Umbrella (0 to 100 scale, 0 is no effect and 100 is complete control) [16]
60: Amaranth, Palmer / Pigweed, Palmer plant response rating (0 to 100 scale) ([3]; 125 g ai/ha) | Ragweed plant response rating (0 to 100 scale) ([6]; 125 g ai/ha) | Kochia plant response rating (0 to 100 scale) (kochia (Bassia scoparia) [8]; 125 g ai/ha) | Plant response rating, Barnyardgrass (0 to 100 scale, 0 is no effect and 100 is complete control) [14] | Soybean plant response rating (0 to 100 scale) (soybean (Glycine max) [26]; 125 g ai/ha)
70: Galium plant response rating (0 to 100 scale) ([2]; 125 g ai/ha) | Wheat plant response rating (0 to 100 scale) ([5]; 125 g ai/ha) | Kochia plant response rating (0 to 100 scale) (kochia (Bassia scoparia) [8]; 500 g ai/ha) | Horseweed plant response rating (0 to 100 scale) ([12]; 125 g ai/ha) | Soybean plant response rating (0 to 100 scale) (soybean (Glycine max) [13]; 125 g ai/ha)
90: Foxtail, Green plant response rating (0 to 100 scale) ([1]; 500 g ai/ha) | Oat, Wild plant response rating (0 to 100 scale) ([7]; 125 g ai/ha) | Ryegrass, Italian plant response rating (0 to 100 scale) ([11]; 125 g ai/ha) | Horseweed plant response rating (0 to 100 scale) ([12]; 500 g ai/ha) | Plant response rating, Ducksalad (0 to 100 scale, 0 is no effect and 100 is complete control) [15] | Wheat plant response rating (0 to 100 scale) ([20]; 125 g ai/ha) | Oat, Wild plant response rating (0 to 100 scale) ([21]; 125 g ai/ha) | Oat, Wild plant response rating (0 to 100 scale) ([21]; 500 g ai/ha) | Kochia plant response rating (0 to 100 scale) (kochia (Bassia scoparia) [22]; 125 g ai/ha) | Corn plant response rating (0 to 100 scale) (corn (Zea mays) [24]; 125 g ai/ha) | Corn plant response rating (0 to 100 scale) (corn (Zea mays) [24]; 500 g ai/ha)
